Assay results taken from patent US12037340B2, “Pentacyclic derivatives as Zika virus inhibitors” (Gilead Sciences, Inc., priority 2021, dated 2024).

Tested on: ZIKV
Experiment: microbe, parasite or virus in culture
Format: cell-based, Zika virus
Settings: 48 hrs

Structure (SMILES) | EC50 (Zika virus, Huh-7) [nM] | EC50 [nM]
CC[C@@H](C)[C@H](NC(=O)OC)C(=O)N1C[C@@H](COC)C[C@H]1c1nc(Cl)c(-c2ccc3c(c2)COc2cc4c(ccc5nc([C@@H]6CC[C@H](C)N6C(=O)[C@@H](NC(=O)OC)C(C)C)[nH]c54)cc2-3)[nH]1 [Compound 19, methyl ((S)-1-((2S,5S)-2-(9-(4-chloro-2-((2S,4S)-1-((methoxycarbonyl)-L-alloisoleucyl)-4-(methoxymethyl)pyrrolidin-2-yl)-1H-imidazol-5-yl)-1,11-dihydroisochromeno[4′,3′:6,7]naphtho[1,2-d]imidazol-2-yl)-5-methylpyrrolidin-1-yl)-3-methyl-1-oxobutan-2-yl)carbamate] | 16.4 | –
COC[C@H]1C[C@@H](c2nc(C#N)c(-c3ccc4c(c3)COc3cc5c(ccc6nc([C@@H]7CC[C@H](C)N7C(=O)[C@@H](NC(=O)OC)C(C)C)[nH]c65)cc3-4)[nH]2)N(C(=O)[C@@H](NC(=O)OC)C(C)C)C1 [Compound 13, methyl ((S)-1-((2S,5S)-2-(9-(4-cyano-2-((2S,4S)-1-((methoxycarbonyl)-L-valyl)-4-(methoxymethyl)pyrrolidin-2-yl)-1H-imidazol-5-yl)-1,11-dihydroisochromeno[4′,3′:6,7]naphtho[1,2-d]imidazol-2-yl)-5-methylpyrrolidin-1-yl)-3-methyl-1-oxobutan-2-yl)carbamate] | 51.6 | –
COC(=O)N[C@H](C(=O)N1CC2(CC2)C[C@H]1c1nc(Cl)c(-c2ccc3c(c2)COc2cc4c(ccc5nc([C@@H]6CC7(CC7)CN6C(=O)[C@@H](NC(=O)OC)C(C)(C)C(F)(F)F)[nH]c54)cc2-3)[nH]1)C(C)(C)C(F)(F)F [Compound 4, methyl ((S)-1-((S)-6-(4-chloro-5-(2-((S)-5-((S)-4,4,4-trifluoro-2-((methoxycarbonyl)amino)-3,3-dimethylbutanoyl)-5-azaspiro[2.4]heptan-6-yl)-1,11-dihydroisochromeno[4′,3′:6,7]naphtho[1,2-d]imidazol-9-yl)-1H-imidazol-2-yl)-5-azaspiro[2.4]heptan-5-yl)-4,4,4-trilluoro-3,3-dimethyl-1-oxobutan-2-yl)carbamate] | – | 8.7
